Results on 8 molecules are retold here after patent US5328912A (priority 1993, dated 1994).

As usually defined, the IC50 is the concentration that inhibits the measured activity by half.

The assay deals with GABAa receptor. In words: GABAa receptor binding assay (displacement of 3H-RO15-1788, rat cortical tissue homogenate). Conditions: 3H-RO15-1788 0.5 nM, 30 min at 4° C., pH 7.4. The method, then: The pharmaceutical utility of compounds of this invention are indicated by the following assay for GABAa receptor activity.
Assays are carried out as described in Thomas and Tallman (J. Bio. Chem. 156: 9838-9842, J. Neurosci. 3: 433-440, 1983). Rat conical tissue is dissected and homogenized in 25 volumes (w/v) of 0.05M Tris HCl buffer (pH 7.4 at 4° C.). The tissue homogenate is centrifuged in the cold (4°) at 20,000× g for 20'. The supernatant is decanted and the pellet is rehomogenized in the same volume of buffer and again centrifuged at 20,000× g. The supernatant is decanted and the pellet is frozen at -20° C. overnight. The pellet is then thawed and rehomogenized in 25 volume (original wt/vol) of buffer and the procedure is carried out twice. The pellet is finally resuspended in 50 volumes (w/vol of 0.05M Tris HCl buffer (pH 7.4 at […]).
Incubations contain 100 μl of tissue homogenate 100 μl of radioligand 0.5 nM (^3 H-RO15-1788 specific activity 80 Ci/mmol), drug or blocker and buffer to a total volume of 500 μl. Incubations are carried for 30 min at 4° C. then are rapidly filtered through GFB filters to separate free and bound ligand. Filters are washed twice with fresh 0.05M Tris HCl buffer (pH 7.4 at 4° C.) and counted in a liquid scintillation counter. 1.0 μM diazepam is added to some tubes to determine nonspecific binding. Data are collected in triplicate determinations, averaged and % inhibition of total specific binding is calculated. Total Specific Binding=Total-Nonspecific. In some cases, the amounts of unlabeled drugs is varied and total displacement curves of binding are carried out. Data are convened to a form for the calculation of IC50 and Hill Coefficient (nH).
A general note: In a radioligand displacement assay an active substance lowers the binding of a labelled ligand.
The molecule `CC(c1ccccc1)N1CCc2[nH]c(=O)n3cc(-c4ccccc4F)nc3c2C1` (racemic) [Compound 21, ±9-(α-Methylbenzyl)-2-(2-fluorophenyl)-7,8,9,10-tetrahydro-imidazo[1,2-c]pyrido[3,4-e] pyrimidin-5(6H)-one] had a concentration for half-maximal inhibition (IC50) of 4.8 nM.
With `O=C(c1ccccc1)N1CCc2[nH]c(=O)n3cc(-c4ccccc4F)nc3c2C1` [Compound 1, 9-Benzoyl-2-(2-fluorophenyl)-7,8,9,10-tetrahydro-imidazo[1,2-c]pyrido[3,4-e]pyrimidin-5(6H)-one], the IC50 turned out to be 500 nM.
Then `O=c1[nH]c2c(c3nc(-c4ccccc4F)cn13)CN(Cc1ccccc1F)CC2` [Compound 13, 9-(2-Fluorobenzyl)-2-(2-fluorophenyl)-7,8,9,10-tetrahydro-imidazo[1,2-c]pyrido[3,4-e] pyrimidin-5(6H)-one], with 2.4 nM; and `O=c1[nH]c2c(c3nc(-c4cccc(Cl)c4)cn13)CN(Cc1ccccc1)CC2` [Compound 14, 9-Benzyl-2-(3-chlorophenyl)-7,8,9,10-tetrahydro-imidazo[1,2-c]pyrido[3,4-e] pyrimidin-5(6H)-one], with 100 nM; and `O=c1[nH]c2c(c3nc(-c4ccccc4F)cn13)CN(Cc1ccc(F)cc1)CC2` [Compound 22, 9-(4-Fluorobenzyl)-2-(2-fluorophenyl)-7,8,9,10-tetrahydro-imidazo[1,2-c]pyrido[3,4-e]pyrimidin-5(6H)-one], with 3.8 nM.
Molecule `CCC(=O)N1CCc2[nH]c(=O)n3cc(-c4ccccc4F)nc3c2C1` [Compound 36, 9-propionyl-2-(2-fluorophenyl)-7,8,9,10-tetrahydro-imidazo[1,2-c]pyrido[3,4-e]pyrimidin-5(6H)-one] displayed a half-inhibitory concentration (IC50) of 10 nM.
Then `O=C(OCc1ccccc1)N1CCc2[nH]c(=O)n3cc(-c4ccccc4F)nc3c2C1` [Compound 44, 9-Carbobenzyloxy-2-(2-fluorophenyl)-7,8,9,10-tetrahydro-imidazo[1,2-c]pyrido[3,4-e]pyrimidin-5(6H)-one], with 10 nM.
The same measure for `CN1CCc2[nH]c(=O)n3cc(-c4ccccc4F)nc3c2C1` [Compound 49, 9-Methyl-2-(2-fluorophenyl)-7,8,9,10-tetrahydro-imidazo[1,2-c]pyrido[3,4-e]pyrimidin-5(6H)-one]: 30 nM.
